The supplement of paper PMC10307832

Tests used:
Test in all cases: relative viability (nuclei count vs DMSO), 5 days (fraction); higher = more cells survive
[1] = compound: CC1=CC(=CC=C1)NC2=NC(=CS2)C3=CC=NC=C3 + COc1cccc2cc(-c3nc([C@H]4CC[C@H](C(=O)O)CC4)n4ncnc(N)c34)[nH]c12 [OSI-027] (partner 0.5 µM)
Summary of the method: (§1)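 After 5 days of treatment, lung cancer cells in 1536-well plates were fixed and stained in a single step (final 0.05% Triton X-100, 1% formaldehyde, 1 ug/ml Hoechst) and their nuclei counted on 4× images. Treatment had been applied by pin tool the day after seeding as one drug alone or as a fixed anchor-drug dose with five library-drug doses (not always all listed) in √10 steps. Relative viability is the nuclei count of treated wells divided by that of vehicle wells, and values are medians of duplicate plates.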

[2] = compound: CC1=CC(=CC=C1)NC2=NC(=CS2)C3=CC=NC=C3 + C[C@]1(O)C[C@@H](c2nc(-c3ccc4ccc(-c5ccccc5)nc4c3)c3c(N)nccn32)C1 [Linsitinib] (partner 1 µM)
Summary of the method: as §1

[3] = compound: CC1=CC(=CC=C1)NC2=NC(=CS2)C3=CC=NC=C3 + N=C(N)NC(=N)NCCc1ccccc1 [Phenformin] (partner 250 µM)
Summary of the method: as §1

Masitinib + Luminespib = compound: Cc1ccc(NC(=O)c2ccc(CN3CCN(C)CC3)cc2)cc1Nc1nc(-c2cccnc2)cs1 [Masitinib] + CCNC(=O)c1noc(-c2cc(C(C)C)c(O)cc2O)c1-c1ccc(CN2CCOCC2)cc1 [Luminespib] (partner 0.01 µM)
Summary of the method: as §1

Cell Line | relative viability ([1]; first compound 0.08 µM) | relative viability ([1]; first compound 0.253 µM) | relative viability ([1]; first compound 0.8 µM) | relative viability ([1]; first compound 2.53 µM) | relative viability ([1]; first compound 8 µM) | relative viability ([2]; first compound 0.08 µM) | relative viability ([2]; first compound 0.253 µM) | relative viability ([2]; first compound 0.8 µM) | relative viability ([2]; first compound 2.53 µM) | relative viability ([2]; first compound 8 µM) | relative viability ([3]; first compound 0.08 µM) | relative viability ([3]; first compound 0.253 µM) | relative viability ([3]; first compound 0.8 µM) | relative viability ([3]; first compound 2.53 µM) | relative viability ([3]; first compound 8 µM) | relative viability (Masitinib + Luminespib; first compound 0.01 µM) | relative viability (Masitinib + Luminespib; first compound 0.03162 µM) | relative viability (Masitinib + Luminespib; first compound 0.1 µM) | relative viability (Masitinib + Luminespib; first compound 0.3162 µM) | relative viability (Masitinib + Luminespib; first compound 1 µM)
HCC-44 | 0.321 | 0.374 | 0.558 | 0.432 | 0.348 | 0.59 | 0.497 | 0.486 | 0.539 | 0.662 | 0.128 | 0.198 | 0.3 | 0.171 | 0.294 | 1.04 | 1.17 | 1.08 | 1.03 | 1.09
HCC-827 | 0.702 | 0.755 | 0.693 | 0.809 | 0.732 | 0.914 | 0.874 | 0.969 | 0.906 | 0.907 | 0.416 | 0.383 | 0.447 | 0.445 | 0.38 | 0.597 | 0.906 | 0.816 | 0.558 | 0.583
NCI-H1623 | 0.444 | 0.359 | 0.391 | 0.405 | 0.384 |  |  |  |  |  | 0.577 | 0.585 | 0.564 | 0.513 | 0.565 | 0.493 | 0.451 | 0.814 | 0.427 | 0.506
NCI-H2405 | 0.564 | 0.636 | 0.531 | 0.702 | 0.671 | 0.777 | 0.927 | 0.799 | 0.999 | 0.926 | 0.344 | 0.352 | 0.347 | 0.411 | 0.434 | 0.606 | 0.64 | 0.692 | 0.521 | 0.571
PC-3 [JPC-3] | 0.651 | 0.659 | 0.599 | 0.607 | 0.594 | 0.888 | 0.878 | 0.772 | 0.903 | 0.91 | 0.426 | 0.451 | 0.461 | 0.486 | 0.498 | 0.741 | 0.571 | 0.774 | 0.783 | 0.677
NCI-H1666 | 0.582 | 0.598 | 0.676 | 0.501 | 0.507 | 0.781 | 0.614 | 0.432 | 0.474 | 0.41 | 0.526 | 0.489 | 0.547 | 0.513 | 0.451 |  | 1.05 | 1.1 | 1.03 | 1.01
HARA | 0.33 | 0.496 | 0.328 | 0.48 | 0.473 | 0.919 | 0.877 | 0.735 | 0.712 | 0.789 | 0.338 | 0.476 | 0.413 | 0.427 | 0.347 |  | 0.609 | 0.44 | 0.682 | 0.731
NCI-H1651 | 0.71 | 0.649 | 0.77 | 0.75 | 0.737 | 0.958 | 0.955 | 0.919 | 0.999 | 0.926 | 0.346 | 0.318 | 0.34 | 0.33 | 0.316 | 0.823 | 1.23 | 0.822 | 0.75 | 0.769
NCI-H1395 | 0.555 | 0.567 | 0.663 | 0.505 | 0.638 | 0.999 | 0.949 | 1.01 | 0.932 | 0.903 | 0.402 | 0.422 | 0.46 | 0.367 | 0.407 | 0.626 | 0.682 | 0.864 | 0.506 | 0.611
LU99A | 0.271 | 0.271 | 0.296 | 0.284 | 0.288 |  | 0.669 | 0.532 | 0.554 | 0.538 | 0.762 | 0.765 | 0.863 | 0.884 | 0.821 | 0.3 | 0.219 | 0.271 | 0.353 | 0.191
LXF-289 | 0.794 | 0.786 | 0.753 | 0.729 | 0.838 | 0.971 | 0.933 | 0.955 | 0.986 | 0.85 | 0.494 | 0.522 | 0.514 | 0.487 | 0.487 | 0.581 | 0.796 | 0.775 | 0.746 | 0.541
NCI-H1437 | 1.04 | 1.02 | 1.08 | 1.04 | 0.714 | 0.945 | 1.01 | 0.913 | 1 | 0.759 | 0.253 | 0.25 | 0.309 | 0.253 | 0.246 | 1.15 | 1.19 | 1.16 | 1.18 | 1.14
HCC-78 |  | 0.371 | 0.392 | 0.308 | 0.435 | 0.398 | 0.506 | 0.542 | 0.423 | 0.63 |  | 0.628 | 0.527 | 0.631 | 0.75 |  |  |  |  | 
NCI-H1650 | 0.619 | 0.508 | 0.625 | 0.472 | 0.227 |  |  |  |  |  | 0.419 | 0.328 | 0.527 | 0.344 | 0.245 | 0.195 | 0.227 | 0.221 | 0.191 | 0.206
HCC-15 | 0.533 | 0.607 | 0.661 | 0.595 | 0.561 | 0.872 | 0.859 | 0.828 | 0.791 | 0.754 | 0.424 | 0.462 | 0.483 | 0.501 | 0.438 | 0.306 | 0.389 | 0.37 | 0.476 | 0.141
EKVX | 0.538 | 0.699 | 0.619 | 0.628 | 0.636 | 0.914 | 0.778 | 0.882 | 0.882 | 0.705 | 0.225 | 0.212 | 0.228 | 0.204 | 0.215 |  | 0.997 | 0.599 | 0.93 | 0.786
NCI-H2126 | 0.608 | 0.582 | 0.674 | 0.631 | 0.651 | 0.671 | 0.694 | 0.71 | 0.726 | 0.657 | 0.466 | 0.439 | 0.523 | 0.498 | 0.523 | 0.888 | 1 | 0.951 | 0.89 | 0.794
